Data from patent publication US20240016942A1, “STAT DEGRADERS AND USES THEREOF” (Kymera Therapeutics, Inc., priority 2020, published 2024).

Target: T1, STAT3 (Homo sapiens, UniProt P40763)
T1 construct: expressed in transfected cells; host or cells: A549
Test: STAT3 HiBiT degradation assay (Nano-Glo HiBiT lytic detection) in transfected A549 cells
Format: cell-based
Settings: 24 h compound incubation, read-out: STAT3 HiBIT A549 degradation 24 h: Average external-Abs DC50
Protocol: Example 1. HiBiT Assay Protocol
Compound preparation and Cell seeding: The transfected A549 cells were harvested from dish into cell culture medium and cell numbers counted. Cells were diluted with culture medium to the desired density and 30 μL of cell suspension (about 2000 cells/well) were added into each well of a 384-well cell culture plate as designated and transferred into 37° C. 5% CO2 incubator for 24 h. Compounds were dissolved to 10 mM stock solution and 12 μL of the stock solution was transferred to a 384 LDV-plate. 3 fold, 10-point dilution was performed by transferring 4 μL compound into 8 μL DMSO using a TECAN (EVO200) liquid handler. 30 μl of diluted compound from compound source plate was transferred into the cell plate as designated by using Echo550 and transferred into 37° C. 5% CO2 incubator for 24 h.
Detection: Plates were removed from incubators and equilibrated at room temperature for 15 minutes. Nano-Glo Hibit Lytic Detection reagent (Promega Cat #N3040) was thawed and equilibrated to room temperature before the experiment. 30 μL of Nano-Glo Hibit Lytic Detection reagent was added into each well to be detected. The plates were held at room temperature for 10 min followed by reading on EnSpire.
Data analysis: The remaining activity was calculated following the formula: Remaining Activity (%)=100%×(Lumsample−LumNC)/(LumPC−LumNC). Calculate the IC50 by fitting the curve using Xlfit (v5.3.1.3), equation 201: fit=(A+((B−A)/(1+((x/C)^D)))); A: Botton; B: Top; C: IC50; and D: Slope.
The letter codes for STAT3 DC50 include: A (<0.01 μM), B (0.01-0.1 μM), C (0.1-1.0 μM), and D (>1.0 μM).

T1 sequence (P40763 whole entry): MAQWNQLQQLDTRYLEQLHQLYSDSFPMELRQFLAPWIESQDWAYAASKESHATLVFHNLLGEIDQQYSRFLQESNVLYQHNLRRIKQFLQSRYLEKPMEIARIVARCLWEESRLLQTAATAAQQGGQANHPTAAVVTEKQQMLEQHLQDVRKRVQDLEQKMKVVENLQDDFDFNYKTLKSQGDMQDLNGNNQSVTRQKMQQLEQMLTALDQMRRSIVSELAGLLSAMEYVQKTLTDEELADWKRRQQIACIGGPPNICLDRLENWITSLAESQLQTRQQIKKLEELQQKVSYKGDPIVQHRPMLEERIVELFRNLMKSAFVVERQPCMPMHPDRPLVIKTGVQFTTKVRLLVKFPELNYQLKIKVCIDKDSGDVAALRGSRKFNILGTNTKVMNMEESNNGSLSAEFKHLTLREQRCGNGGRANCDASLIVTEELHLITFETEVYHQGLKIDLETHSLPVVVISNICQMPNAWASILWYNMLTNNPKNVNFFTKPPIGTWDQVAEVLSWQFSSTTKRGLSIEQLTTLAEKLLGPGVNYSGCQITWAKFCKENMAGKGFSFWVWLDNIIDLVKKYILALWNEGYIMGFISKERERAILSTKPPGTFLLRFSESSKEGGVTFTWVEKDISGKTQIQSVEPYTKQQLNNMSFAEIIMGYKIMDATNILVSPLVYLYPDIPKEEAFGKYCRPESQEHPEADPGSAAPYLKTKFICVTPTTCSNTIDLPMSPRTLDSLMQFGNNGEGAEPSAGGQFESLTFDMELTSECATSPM

SMILES	DC50 [nM]
C[C@H](NC(=O)[C@H](CCC(N)=O)NC(=O)[C@@H]1CC[C@@H]2CCN(C(=O)C[C@H]3CC[C@@H](Cc4ccc5c(c4)n(C)c(=O)n5C4CCC(=O)NC4=O)CC3)C[C@H](NC(=O)c3cc4cc(C(=O)P(=O)(O)O)ccc4[nH]3)C(=O)N21)c1ccc(S(C)(=O)=O)cc1 (stereo partly drawn) [I-41]	100 to 1000
CCS(=O)(=O)c1ccc(CNC(=O)[C@H](CCC(N)=O)NC(=O)[C@@H]2CC[C@@H]3CCN(C(=O)C[C@H]4CC[C@@H](Cc5ccc6c(c5)n(C)c(=O)n6C5CCC(=O)NC5=O)CC4)C[C@H](NC(=O)c4cc5cc(C(=O)P(=O)(O)O)ccc5[nH]4)C(=O)N32)cc1 (stereo partly drawn) [I-62]	10 to 100
Cn1c(=O)n(C2CCC(=O)NC2=O)c2ccc(C[C@H]3CC[C@@H](CC(=O)N4CC[C@H]5CC[C@@H](C(=O)N[C@@H](CCC(N)=O)C(=O)NCc6ccc(S(C)(=O)=O)cc6)N5C(=O)[C@@H](NC(=O)c5cc6cc(C(=O)O)ccc6[nH]5)C4)CC3)cc21 (stereo partly drawn) [I-75, 2-[[(5S,8S,10aR)-8-[[(1S)-3-carbamoyl-1-[[(4-methanesulfonylphenyl)methyl]carbamoyl]propyl]carbamoyl]-6-oxo-3-[2-[(1s,4s)-4-[[1-(2,6-dioxopiperidin-3-yl)-3-methyl-2-oxo-1,3-benzodiazol-5-yl]methyl]cyclohexyl]acetyl]-octahydropyrrolo[1,2-a][1,5]diazocin-5-yl]carbamoyl]-1H-indole-5-carboxylic acid]	> 1000
CC(=O)N1CC[C@H]2CC[C@@H](C(=O)N[C@@H](CCC(N)=O)COc3cc(C)cc(CCCC(=O)N[C@H](C(=O)N4C[C@H](O)C[C@H]4C(=O)N[C@@H](C)c4ccc(-c5scnc5C)cc4)C(C)(C)C)c3Cl)N2C(=O)[C@@H](NC(=O)c2cc3cc(C(=O)P(=O)(O)O)ccc3[nH]2)C1 [I-80]	< 10
Cn1c(=O)n(C2CCC(=O)NC2=O)c2ccc(C[C@H]3CC[C@@H](CC(=O)N4CC[C@H]5CC[C@@H](C(=O)NC(C)(C)CCC(N)=O)N5C(=O)[C@@H](NC(=O)c5cc6cc(C(=O)P(=O)(O)O)ccc6[nH]5)C4)CC3)cc21 (stereo partly drawn) [I-26]	> 1000
Cc1ncsc1-c1ccc([C@H](C)NC(=O)[C@@H]2C[C@@H](O)CN2C(=O)[C@@H](NC(=O)CCCc2cc(F)cc(OC[C@H](CCC(N)=O)NC(=O)[C@@H]3CC[C@@H]4CCCC[C@H](NC(=O)c5cc6cc(C(=O)P(=O)(O)O)ccc6[nH]5)C(=O)N43)c2Cl)C(C)(C)C)cc1 [I-8]	< 10
CC(=O)N1CC[C@H]2CC[C@@H](C(=O)N[C@@H](CCC(N)=O)COc3cccc(CCCOc4cc([C@H](C(=O)N5C[C@H](O)C[C@H]5C(=O)NCc5ccc(-c6scnc6C)cc5)C(C)C)on4)c3Cl)N2C(=O)[C@@H](NC(=O)c2cc3cc(C(=O)P(=O)(O)O)ccc3[nH]2)C1 [I-69]	< 10
Cn1c(=O)n(C2CCC(=O)NC2=O)c2ccc(NC[C@H]3CC[C@@H](C(=O)N4CC[C@H]5CC[C@@H](C(=O)N[C@@H](CCC(N)=O)C(=O)NCc6ccc(S(C)(=O)=O)cc6)N5C(=O)[C@@H](NC(=O)c5cc6cc(C(=O)P(=O)(O)O)ccc6[nH]5)C4)CC3)cc21 (stereo partly drawn) [I-48]	10 to 100
Cn1c(=O)n(C2CCC(=O)NC2=O)c2ccc(C[C@H]3CC[C@@H](CC(=O)N4CC[C@H]5CC[C@@H](C(=O)N[C@@H](CCC(N)=O)C(=O)NCc6ccc(S(C)(=O)=O)cc6F)N5C(=O)[C@@H](NC(=O)c5cc6cc(C(=O)P(=O)(O)O)ccc6[nH]5)C4)CC3)cc21 (stereo partly drawn) [I-44]	10 to 100
COC(=O)N1CC[C@H]2CC[C@@H](C(=O)N[C@@H](CCC(N)=O)COc3cccc(CCCC(=O)N[C@H](C(=O)N4C[C@H](O)C[C@H]4C(=O)N[C@@H](C)c4ccc(-c5scnc5C)cc4)C(C)(C)C)c3Cl)N2C(=O)[C@@H](NC(=O)c2cc3cc(C(F)(F)P(=O)(O)O)ccc3[nH]2)C1 [I-84]	> 1000
Cc1ncsc1-c1ccc([C@H](C)NC(=O)[C@@H]2C[C@@H](O)CN2C(=O)[C@@H](NC(=O)CCCc2cccc(OC[C@H](CCC(N)=O)NC(=O)[C@@H]3CC[C@@H]4CCCC[C@H](NC(=O)c5cc6cc(C(=O)P(=O)(O)O)ccc6[nH]5)C(=O)N43)c2Cl)C(C)(C)C)cc1 [I-2]	< 10
Cc1ncsc1-c1ccc(C2(NC(=O)[C@@H]3C[C@@H](O)CN3C(=O)[C@@H](NC(=O)CCCc3cccc(OC[C@H](CCC(N)=O)NC(=O)[C@@H]4Cc5cccc6c5N4C(=O)[C@@H](NC(=O)c4cc5cc(C(=O)P(=O)(O)O)ccc5[nH]4)CC6)c3Cl)C(C)(C)C)CC2)cc1 [I-71]	10 to 100
Cc1ncsc1-c1ccc([C@H](C)NC(=O)[C@@H]2C[C@@H](O)CN2C(=O)[C@@H](NC(=O)CCCCc2cccc(OC[C@H](CCC(N)=O)NC(=O)[C@@H]3CC[C@@H]4CCCC[C@H](NC(=O)c5cc6cc(C(=O)P(=O)(O)O)ccc6[nH]5)C(=O)N43)c2F)C(C)(C)C)cc1 [I-3]	< 10
Cc1ncsc1-c1ccc([C@H](C)NC(=O)[C@@H]2C[C@@H](O)CN2C(=O)[C@@H](NC(=O)CCCc2cccc(OC[C@H](CCC(N)=O)NC(=O)[C@@H]3CC[C@@H]4CCN(C(=O)c5cccc(F)c5)C[C@H](NC(=O)c5cc6cc(C(=O)P(=O)(O)O)ccc6[nH]5)C(=O)N43)c2Cl)C(C)(C)C)cc1 [I-60]	10 to 100
Cn1c(=O)n(C2CCC(=O)NC2=O)c2ccc(CCCCCCC(=O)N3CC[C@H]4CC[C@@H](C(=O)N[C@@H](CCC(N)=O)C(=O)NCc5ccc(S(C)(=O)=O)cc5)N4C(=O)[C@@H](NC(=O)c4cc5cc(C(=O)P(=O)(O)O)ccc5[nH]4)C3)cc21 (stereo partly drawn) [I-76]	10 to 100
Cc1ncsc1-c1ccc([C@H](C)NC(=O)[C@@H]2C[C@@H](O)CN2C(=O)[C@@H](NC(=O)CCCc2cccc(OC[C@H](CCC(N)=O)NC(=O)[C@@H]3CCCN3C(=O)[C@@H](NC(=O)c3cc4cc(C(=O)P(=O)(O)O)ccc4[nH]3)C3CCCCC3)c2Cl)C(C)(C)C)cc1 [I-12]	10 to 100
CC(=O)N1CC[C@H]2CC[C@@H](C(=O)N[C@@H](CCC(N)=O)COc3cc(F)cc(CCCC(=O)N[C@H](C(=O)N4C[C@H](O)C[C@H]4C(=O)N[C@@H](C)c4ccc(-c5scnc5C)cc4)C(C)(C)C)c3Cl)N2C(=O)[C@@H](NC(=O)c2cc3cc(C(=O)P(=O)(O)O)ccc3[nH]2)C1 [I-77]	< 10
CC(=O)N1CC[C@H]2CC[C@@H](C(=O)N[C@@H](CCC(N)=O)COc3cc(F)cc(CCCC(=O)N[C@H](C(=O)N4C[C@H](O)C[C@H]4C(=O)N[C@@H](C)c4ccc(-c5scnc5C)cc4)C(C)(C)C)c3F)N2C(=O)[C@@H](NC(=O)c2cc3cc(C(=O)P(=O)(O)O)ccc3[nH]2)C1 [I-79]	< 10
CC(=O)N1CC[C@H]2CC[C@@H](C(=O)N[C@@H](CCC(N)=O)COc3cc(C)cc(CCCC(=O)N[C@H](C(=O)N4C[C@H](O)C[C@H]4C(=O)N[C@@H](C)c4ccc(-c5scnc5C)cc4)C(C)(C)C)c3F)N2C(=O)[C@@H](NC(=O)c2cc3cc(C(=O)P(=O)(O)O)ccc3[nH]2)C1 [I-78]	< 10
CNC(=O)CC[C@@H](C)NC(=O)[C@@H]1Cc2cc(CCCCCCc3ccc4c(c3)n(C)c(=O)n4C3CCC(=O)NC3=O)cc3c2N1C(=O)[C@@H](NC(=O)c1cc2cc(C(=O)P(=O)(O)O)ccc2[nH]1)CC3 (stereo partly drawn) [I-22]	> 1000
Cc1ncsc1-c1ccc([C@H](C)NC(=O)[C@@H]2C[C@@H](O)CN2C(=O)[C@@H](NC(=O)CCCc2cccc(OC[C@H](CCC(N)=O)NC(=O)[C@@H]3CCCN3C(=O)[C@H](CO)NC(=O)c3cc4cc(C(=O)P(=O)(O)O)ccc4[nH]3)c2Cl)C(C)(C)C)cc1 [I-11]	10 to 100
Cn1c(=O)n(C2CCC(=O)NC2=O)c2ccc(CC[C@H]3CC[C@@H](C(=O)N4CC[C@H]5CC[C@@H](C(=O)N[C@@H](CCC(N)=O)C(=O)NCc6ccc(S(C)(=O)=O)cc6)N5C(=O)[C@@H](NC(=O)c5cc6cc(C(=O)P(=O)(O)O)ccc6[nH]5)C4)CC3)cc21 (stereo partly drawn) [I-68, 2-[[(5S,8S,10aR)-8-[[(1S)-3-carbamoyl-1-[[(4-methanesulfonylphenyl)methyl]carbamoyl]propyl]carbamoyl]-6-oxo-3-[(1r,4s)-4-[2-[1-(2,6-dioxopiperidin-3-yl)-3-methyl-2-oxo-1,3-benzodiazol-5-yl]ethyl]cyclohexanecarbonyl]-octahydropyrrolo[1,2-a][1,5]diazocin-5-yl]carbamoyl]-1H-indole-5-carbonylphosphonic acid]	10 to 100
Cn1c(=O)n(C2CCC(=O)NC2=O)c2ccc(NCCCCCc3cc4c5c(c3)C[C@@H](C(=O)N[C@@H](CCC(N)=O)C(=O)NCc3ccc(S(C)(=O)=O)cc3)N5C(=O)[C@@H](NC(=O)c3cc5cc(C(=O)P(=O)(O)O)ccc5[nH]3)CC4)cc21 (stereo partly drawn) [I-57, 2-[[(2S,11S)-2-[[(1S)-3-carbamoyl-1-[[(4-methanesulfonylphenyl)methyl]carbamoyl]propyl]carbamoyl]-6-(5-[[1-(2,6-dioxopiperidin-3-yl)-3-methyl-2-oxo-1,3-benzodiazol-5-yl]amino]pentyl)-12-oxo-1-azatricyclo[6.4.1.0^[4,13]]trideca-4(13),5,7-trien-11-yl]carbamoyl]-1H-indole-5-carbonylphosphonic acid]	10 to 100

Same assay, conditions: read-out: STAT3 HiBIT A549 degradation 24 h: Average external-Abs DC50, 24 h compound incubation

SMILES	DC50 [nM]
CC(C)c1ccc(CNC(=O)[C@H](CCC(N)=O)NC(=O)[C@@H]2CC[C@@H]3CCN(C(=O)[C@H]4CC[C@@H](CCc5ccc6c(c5)n(C)c(=O)n6C5CCC(=O)NC5=O)CC4)C[C@H](NC(=O)c4cc5cc(C(=O)P(=O)(O)O)ccc5[nH]4)C(=O)N32)cc1Cl (stereo partly drawn) [I-33]	10 to 100
